Experimental findings from patent publication US8754079B2, “Cycloalkyl containing thienopyrimidines for pharmaceutical compositions” (Boehringer Ingelheim International GmbH, priority 2010, dated 2014) are described below.

This experiment deals with T1, MNK2 (Homo sapiens, UniProt Q9HBH9).
T1 construct: the open reading frames of human Mnk1 and Mnk2a were amplified from cDNA; made in house; host or cells: E. coli BL21
Briefly: Mnk2a in vitro kinase assay (indirect fluorescence polarization). It counts as biochemical. The settings on record: pre-activated GST-Mnk2a 2.5 nM, 20 μM ATP, 30 μM substrate peptide. The procedure:
Inhibitory potency of compounds against Mnk1, Mnk2a and other kinases was assessed with assays based on a format known to those skilled in the art as the indirect (competitive) fluorescence polarization. The assay detection system comprises a small fluorophore-labeled phospho-peptide (termed ligand) bound to a phospho-specific antibody. The product generated by the kinase reaction competes with the ligand for antibody binding. Based on the larger molecular volume of the bound ligand, which results in a lower rotation rate in solution, its emitted light has a higher degree of polarization than the one from the free ligand.
Example 2a. Mnk1 and Mnk2a in vitro kinase assay
As a source of enzyme, human Mnk1 and human Mnk2a were expressed as GST fusion proteins in E. coli, purified to >80% homogeneity by glutathione affinity chromatography and activated in vitro with pre-activated ERK2. In brief, the open reading frames of human Mnk1 and Mnk2a were amplified from cDNA using the forward/reverse primer pairs
(utilized restriction sites underlined), respectively, and cloned into the BamHI and SalI sites of the vector pGEX-4T1 (Amersham, Sweden, cat. no. 27-4580-01). These constructs allow prokaryotic expression of Mnk1 or Mnk2a as fusion protein with a N-terminal glutathione S-transferase (GST) tag, referred to as GST-Mnk1 or GSTMnk2a. The following expression and purification procedure was identical for GSTMnk1 and GST-Mnk2a, referring in general to GST-Mnk, when not distinguishing between the two isoforms. Expression of GST-Mnk was in E. coli BL21 (Merck Biosciences, Germany, cat. no. 69449). Cells were grown in LB-Bouillon (Merck, Germany, cat. no. 1.10285) supplemented with 100 μg/ml ampicillin (Sigma, Germany, cat. no. A9518) at 37° C. When the culture had reached a density corresponding to an A600 of 0.8, an equal volume of ice cold LB/ampicillin was added, the culture transferred to 25° C. and induced for 4 h with 1 mM isopropyl thiogalactoside (IPTG, Roth, Germany, cat. no. 2316.4). Cells harvested by centrifugation were resuspended in 10 ml lysis buffer (50 mM tris(hydroxymethyl)aminomethane hydrochloride (Tris/HCl, Sigma, Germany, cat. no. T5941) pH 7.5, 300 mM sodium chloride (NaCl, Sigma, Germany, cat. no. S7653), 5% (w/v) glycerol (Sigma, Germany, cat. no. G5516), 3 mM DTT dithiotreitol (DTT, Sigma, Germany, cat. no. D9779)) per gram wet weight cell pellet. Lysates were prepared by disruption of cells with a sonifier and subsequent clearing by centrifugation at 38000 g for 45 min at 4° C.
The lysate was applied to a GSTPrep FF 16/10 column (Amersham, Sweden, cat. no. 17-5234-01) equilibrated with lysis buffer. Removal of unbound material was with 3 column volumes (CV) lysis buffer. Elution was with 2 CV of elution buffer (50 mM Tris/HCl pH 7.5, 300 mM NaCl, 5% (w/v) glycerol, 20 mM glutathione (Sigma, Germany, cat. no. G4251)). Peak fractions were pooled and the protein transferred into storage buffer (50 mM Tris/HCl pH 7.5, 200 mM NaCl, 0.1 mM ethylene glycolbis(2-aminoethylether)-N,N,N′,N′-tetraacetic acid (EGTA, Aldrich, Germany, cat. no. 23, 453-2), 1 mM DTT, 10% (w/v) glycerol, 0.5 M sucrose (Sigma, Germany, cat. no. S0389) by gel filtration on a PD10 desalting column (Amersham, Sweden, cat. no. 17-0851-01). Aliquots were shock frozen in liquid nitrogen and stored at −80° C.
Activation of Mnk1 and Mnk2a was at a concentration of 2.5 μM of either purified GST-Mnk1 or GST-Mnk2a by incubation with 150 nM pre-activated NHis-ERK2 (see ERK2 assay for preparation) and 50 μM adenosine triphosphate (ATP, Sigma, cat. no. A2699) in a buffer comprising 20 mM N-(2-hydroxyethyl)piperazine-N′-(2-ethanesulfonic acid) (HEPES, Fluka, Germany, cat. no 54459)/potassium hydroxide (KOH, Roth, Germany, cat. no 6751.1) pH 7.4, 10 mM magnesium chloride (MgCl2, Sigma, Germany, cat. no. M2670), 0.25 mM DTT, 0.05% (w/v) polyoxyethylene 20 stearylether (Brij 78, Sigma, Germany, cat. no. P4019) (HMDB buffer) for 45 min at 30° C. […]
A general note: Fluorescence polarisation rises when a labelled molecule tumbles more slowly, as on binding a larger partner.

T1 sequence (Q9HBH9 whole entry): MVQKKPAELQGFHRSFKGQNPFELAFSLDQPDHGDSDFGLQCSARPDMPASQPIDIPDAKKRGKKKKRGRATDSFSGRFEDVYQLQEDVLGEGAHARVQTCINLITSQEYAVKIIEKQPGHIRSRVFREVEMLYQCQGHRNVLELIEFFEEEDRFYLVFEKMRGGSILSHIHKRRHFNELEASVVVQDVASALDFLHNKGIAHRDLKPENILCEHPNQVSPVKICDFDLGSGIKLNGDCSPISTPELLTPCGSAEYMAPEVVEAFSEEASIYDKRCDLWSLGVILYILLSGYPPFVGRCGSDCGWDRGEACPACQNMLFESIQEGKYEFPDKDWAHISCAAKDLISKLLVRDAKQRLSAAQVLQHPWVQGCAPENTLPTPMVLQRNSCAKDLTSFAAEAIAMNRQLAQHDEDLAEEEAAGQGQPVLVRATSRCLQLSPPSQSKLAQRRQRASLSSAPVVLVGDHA

For the compound `CO[C@@H]1CCC[C@@H](Oc2ncccc2Nc2ncnc3sc(C(=O)NCCCN4CCCC4)c(C)c23)C1` (racemic) [Example 148], it took 49 nM to reach half-maximal inhibition (IC50).

Turning to `Cc1c(C(N)=O)sc2ncnc(Nc3ccc(F)cc3O[C@@H]3CCC[C@H]4OC(C)(C)O[C@@H]34)c12` (relative stereo) [Example 1], the IC50 (commonly the midpoint of a concentration-inhibition curve) turned out to be 13 nM.

As to `Cc1c(C(N)=O)sc2ncnc(Nc3ccc(F)cc3O[C@@H]3CCC[C@@H](O)[C@H]3O)c12` (relative stereo) [Example 2], the IC50 was determined as 21 nM.

In turn, `CN[C@H]1CCC[C@@H](Oc2cc(F)ccc2Nc2ncnc3sc(C(N)=O)c(C)c23)C1` (relative stereo) [Example 17, 4-(4-Fluoro-2-(cis-3-(N-methylamino)cyclohexyloxy)phenylamino)-5-methylthieno[2,3-d]pyrimidine-6-carboxamide] registered an IC50 of 28 nM.

For `CN[C@H]1CCC[C@H](Oc2cc(F)ccc2Nc2ncnc3sc(C(N)=O)c(C)c23)C1` (relative stereo) [Example 18, 4-(4-Fluoro-2-(trans-3-(N-methylamino)cyclohexyloxy)phenylamino)-5-methylthieno[2,3-d]pyrimidine-6-carboxamide], half-maximal inhibition (IC50) required 36 nM.

`COC(=O)c1sc2ncnc(Nc3ccc(F)cc3OC3C[C@@H](O)C[C@H](O)C3)c2c1C` (relative stereo) [Example 30.1] displayed a half-maximal inhibitory concentration (IC50) of 9 nM.

`CO[C@H]1CCC[C@@H](Oc2ncccc2Nc2ncnc3sc(C(=O)NCC4COCCN4)c(C)c23)C1` (relative stereo) [Example 120] came in with an IC50 of 33 nM.

In turn, `CO[C@H]1CCC[C@@H](Oc2ncccc2Nc2ncnc3sc(C(=O)NCC(C)O)c(C)c23)C1` (relative stereo) [Example 125] gave an IC50 of 44 nM.

`CO[C@H]1CCC[C@@H](Oc2ncccc2Nc2ncnc3sc(C(=O)NCCCO)c(C)c23)C1` (relative stereo) [Example 126] displayed an IC50 of 23 nM.

`CO[C@@H]1CCC[C@@H](Oc2ncccc2Nc2ncnc3sc(C(=O)NCC4CNCCO4)c(C)c23)C1` (relative stereo) [Example 140]: the IC50 turned out to be 49 nM.

The compound `CO[C@@H]1CCC[C@@H](Oc2ncccc2Nc2ncnc3sc(C(=O)NCCO)c(C)c23)C1` (relative stereo) [Example 143] had a 50% inhibitory concentration (IC50) of 77 nM.

`Cc1c(C(N)=O)sc2ncnc(Nc3ccc(F)cc3OC3C[C@@H](O)[C@H](O)C3)c12` (relative stereo) [Example 211] came in with an IC50 of 8 nM.

As to `Cc1c(C(N)=O)sc2ncnc(Nc3ccc(F)cc3O[C@@H]3CC[C@@H](O)[C@H]3O)c12` (relative stereo) [Example 221], inhibition was half-maximal at 10 nM (IC50).

`Cc1c(C(=O)NCCCN(C)C)sc2ncnc(Nc3ccc(F)cc3O[C@@H]3CC[C@@H](O)[C@H]3O)c12` (relative stereo) [Example 222] showed an IC50 of 41 nM.

As to `Cc1c(C(N)=O)sc2ncnc(Nc3ccc(F)cc3O[C@@H]3CC[C@H](O)[C@@H]3O)c12` (relative stereo) [Example 223], the IC50 amounted to 18 nM.

The compound `Cc1c(C(N)=O)sc2ncnc(Nc3ccc(F)cc3O[C@@H]3CCC[C@@H]3O)c12` (relative stereo) [Example 224] had a half-maximal inhibitory concentration (IC50) of 8 nM.

`COC(=O)[C@H](CO)NC(=O)c1sc2ncnc(Nc3ccc(F)cc3O[C@H]3CC[C@H](OC)CC3)c2c1C` (relative stereo) [Example 272, 2-({-4-[4-Fluoro-2-(trans-4-methoxy-cyclohexyloxy)-phenylamino]-5-methyl-thieno[2,3-d]pyrimidine-6-carbonyl}-amino)-3-hydroxy-propionic acid methyl ester] gave an IC50 of 33 nM.

Compound `COC(=O)c1sc2ncnc(Nc3ccc(F)cc3O[C@@H]3CCCC[C@@H]3O)c2c1C` (single isomer, unassigned) [Example 256, 4-[4-fluoro-2-(cis-2-hydroxy-cyclohexyloxy)-phenylamino]-5-methyl-thieno[2,3-d]pyrimidine-6-carboxylic acid methyl ester] showed an IC50 of 1290 nM.

Take `COC(=O)c1sc2ncnc(Nc3ccc(F)cc3O[C@H]3CCCC[C@H]3O)c2c1C` (single isomer, unassigned) [Example 257, 4-[4-fluoro-2-(cis-2-hydroxy-cyclohexyloxy)-phenylamino]-5-methyl-thieno[2,3-d]pyrimidine-6-carboxylic acid methyl ester]: the IC50 was 141 nM.

Compound `Cc1c(C(=O)O)sc2ncnc(Nc3ccc(F)cc3O[C@@H]3CCCC[C@@H]3O)c12` (single isomer, unassigned) [Example 258, 4-[4-fluoro-2-(cis-2-hydroxy-cyclohexyloxy)-phenylamino]-5-methyl-thieno[2,3-d]pyrimidine-6-carboxylic acid] gave a concentration for half-maximal inhibition (IC50) of 110 nM.

On to `Cc1c(C(=O)NC2CCN(C)CC2)sc2ncnc(Nc3ccc(F)cc3OC3CCCCC3O)c12` (single isomer, unassigned) [Example 259], for which inhibition was half-maximal at 346 nM (IC50).

As for `Cc1c(C(=O)NCCCN2CCCC2)sc2ncnc(Nc3ccc(F)cc3OC3CCCCC3O)c12` (single isomer, unassigned) [Example 260], the IC50 turned out to be 255 nM.

`Cc1c(C(=O)O)sc2ncnc(Nc3ccc(F)cc3O[C@H]3CCCC[C@H]3O)c12` (single isomer, unassigned) [Example 262, 4-[4-fluoro-2-(cis-2-hydroxy-cyclohexyloxy)-phenylamino]-5-methyl-thieno[2,3-d]pyrimidine-6-carboxylic acid] returned an IC50 of 23 nM.

For `Cc1c(C(=O)NC2CCN(C)CC2)sc2ncnc(Nc3ccc(F)cc3OC3CCCCC3O)c12` (single isomer, unassigned) [Example 265], the IC50 amounted to 54 nM.

For `Cc1c(C(N)=O)sc2ncnc(Nc3ccc(F)cc3O[C@H]3CC[C@H](NS(C)(=O)=O)CC3)c12` [Example 3, 4-[4-Fluoro-2-(trans-4-methanesulfonylamino-cyclohexyloxy)-phenylamino]-5-methyl-thieno[2,3-d]pyrimidine-6-carboxylic acid amide], inhibition was half-maximal at 10 nM (IC50).

With `Cc1c(C(N)=O)sc2ncnc(Nc3ccc(F)cc3O[C@H]3CC[C@H](N(C)S(C)(=O)=O)CC3)c12` [Example 4, 4-(4-Fluoro-2-(trans-4-(N-methylmethylsulfonamido)cyclohexyloxy)phenylamino)-5-methylthieno[2,3-d]pyrimidine-6-carboxamide], the IC50 stood at 23 nM.

`CC(=O)N[C@H]1CC[C@H](Oc2cc(F)ccc2Nc2ncnc3sc(C(N)=O)c(C)c23)CC1` [Example 5, 4-(2-(trans-4-acetamidocyclohexyloxy)-4-fluorophenylamino)-5-methylthieno[2,3-d]pyrimidine-6-carboxamide] had an IC50 of 3 nM.

Compound `CC(=O)N[C@H]1CC[C@H](Oc2cc(F)ccc2Nc2ncnc3sc(C(=O)NCCCN(C)C)c(C)c23)CC1` [Example 6] yielded an IC50 of 7 nM.

`CC(=O)N(C)[C@H]1CC[C@H](Oc2cc(F)ccc2Nc2ncnc3sc(C(N)=O)c(C)c23)CC1` [Example 7] came in with a half-maximal inhibitory concentration (IC50) of 7 nM.
